Data as given in the NIST ThermoML archive (doi:10.1016/j.jct.2016.02.016).
± gives the expanded uncertainty stated by the source.

Tests used:
[1] = 101.33 kPa, Liquid; for speed of sound: Sing-around technique in a fixed-path interferometer; for mass density: Vibrating tube method
[2] = refractive index (Na D-line) (dimensionless); conditions: 101.33 kPa, Liquid, Standard Abbe refractometry
[3] = xn = mol fraction of the nth substance listed; conditions: 100 kPa, Liquid; for speed of sound: Frequency=3 MHz, Sing-around technique in a fixed-path interferometer; for mass density: Vibrating tube method
[4] = refractive index (Na D-line) (dimensionless); xn = mol fraction of the nth substance listed; conditions: 100 kPa, Liquid, Standard Abbe refractometry

CCCCCC(C)=O [2-heptanone]
Conditions | mass density, 293.15 K [kg/m3] | mass density, 298.15 K [kg/m3] | mass density, 303.15 K [kg/m3] | refractive index, 298.15 K | speed of sound, 293.15 K [m/s] | speed of sound, 298.15 K [m/s] | speed of sound, 303.15 K [m/s]
[1] | 815.39 ± 2 | 811.08 ± 2 | 806.81 ± 1.9 | – | 1282.1 ± 1.6 | 1262.7 ± 1.5 | 1244.4 ± 1.5
[2] | – | – | – | 1.40688 ± 0.0042 | – | – | –

CCCCCC(C)=O [2-heptanone] + CN(C)C=O
298.15 K
Conditions | mass density, [3] [kg/m3] | refractive index, [4] | speed of sound, [3] [m/s]
x2 = 0 | 811.08 ± 2 | 1.40688 ± 0.0042 | 1262.7 ± 1.6
x2 = 0.053 | 815.095 ± 2 | 1.40756 ± 0.0042 | 1268.2 ± 1.5
x2 = 0.0936 | 818.298 ± 2 | 1.40811 ± 0.0042 | 1272.9 ± 1.5
x2 = 0.1502 | 822.964 ± 2 | 1.4089 ± 0.0042 | 1279 ± 1.5
x2 = 0.2011 | 827.389 ± 2 | 1.40962 ± 0.0042 | 1285.3 ± 1.5
x2 = 0.2495 | 831.808 ± 2 | 1.41034 ± 0.0042 | 1291.3 ± 1.5
x2 = 0.296 | 836.272 ± 2 | 1.41107 ± 0.0043 | 1297.5 ± 1.5
x2 = 0.3419 | 840.896 ± 2 | 1.41182 ± 0.0043 | 1304 ± 1.5
x2 = 0.3963 | 846.646 ± 2 | 1.41276 ± 0.0043 | 1312.2 ± 1.5
x2 = 0.4324 | 850.691 ± 2.1 | 1.41341 ± 0.0043 | 1318 ± 1.5
x2 = 0.4957 | 858.13 ± 2.1 | 1.41462 ± 0.0043 | 1328.7 ± 1.5
x2 = 0.5537 | – | 1.41582 ± 0.0043 | –
x2 = 0.5985 | 871.481 ± 2.1 | 1.41679 ± 0.0043 | 1348.2 ± 1.5
x2 = 0.6368 | 876.894 ± 2.1 | 1.41766 ± 0.0043 | 1356.2 ± 1.5
x2 = 0.6999 | 886.398 ± 2.1 | 1.41919 ± 0.0043 | 1370.3 ± 1.5
x2 = 0.7433 | 893.368 ± 2.2 | 1.42032 ± 0.0043 | 1380.8 ± 1.5
x2 = 0.8482 | 911.958 ± 2.2 | 1.42329 ± 0.0043 | 1408.7 ± 1.5
x2 = 0.8634 | 914.867 ± 2.2 | 1.42376 ± 0.0043 | 1413.1 ± 1.5
x2 = 0.8985 | 921.855 ± 2.2 | 1.42488 ± 0.0043 | 1423.7 ± 1.5
x2 = 0.948 | 932.305 ± 2.3 | 1.42651 ± 0.0043 | 1439.5 ± 1.5

CC(C)=O [acetone]
Conditions | mass density, 293.15 K [kg/m3] | mass density, 298.15 K [kg/m3] | mass density, 303.15 K [kg/m3] | refractive index, 293.15 K | refractive index, 298.15 K | speed of sound, 293.15 K [m/s] | speed of sound, 298.15 K [m/s] | speed of sound, 303.15 K [m/s]
[1] | 790.19 ± 1.9 | 784.43 ± 1.9 | 778.63 ± 1.9 | – | – | 1183.6 ± 1.1 | 1163.6 ± 1.1 | 1139.9 ± 1.1
[2] | – | – | – | 1.35845 ± 0.0041 | 1.35386 ± 0.0041 | – | – | –

CCC(C)=O [butanone]
Conditions | mass density, 293.15 K [kg/m3] | mass density, 298.15 K [kg/m3] | mass density, 303.15 K [kg/m3] | refractive index, 293.15 K | refractive index, 298.15 K | refractive index, 303.15 K | speed of sound, 293.15 K [m/s] | speed of sound, 298.15 K [m/s] | speed of sound, 303.15 K [m/s]
[1] | 805.06 ± 1.9 | 799.78 ± 1.9 | 794.55 ± 1.9 | – | – | – | 1212.6 ± 1.2 | 1191.5 ± 1.2 | 1172 ± 1.2
[2] | – | – | – | 1.37872 ± 0.0042 | 1.37605 ± 0.0041 | 1.37351 ± 0.0041 | – | – | –

CN(C)C=O [dimethylformamide]
Conditions | mass density, 293.15 K [kg/m3] | mass density, 298.15 K [kg/m3] | mass density, 303.15 K [kg/m3] | refractive index, 293.15 K | refractive index, 298.15 K | refractive index, 303.15 K | speed of sound, 293.15 K [m/s] | speed of sound, 298.15 K [m/s] | speed of sound, 303.15 K [m/s]
[1] | 948.82 ± 2.3 | 944.06 ± 2.3 | 939.28 ± 2.3 | – | – | – | 1476.7 ± 1.5 | 1458.6 ± 1.4 | 1438.8 ± 1.4
[2] | – | – | – | 1.43055 ± 0.0043 | 1.4284 ± 0.0043 | 1.4261 ± 0.0043 | – | – | –

CN(C)C=O [dimethylformamide] + CC(C)=O
x1 = 1
Conditions | mass density, 293.15 K [kg/m3] | mass density, 298.15 K [kg/m3] | mass density, 303.15 K [kg/m3] | refractive index, 293.15 K | refractive index, 298.15 K | speed of sound, 293.15 K [m/s] | speed of sound, 298.15 K [m/s] | speed of sound, 303.15 K [m/s]
[3] | 948.82 ± 2.3 | 944.06 ± 2.3 | 939.28 ± 2.3 | – | – | 1476.7 ± 1.5 | 1458.6 ± 1.4 | 1438.8 ± 1.4
[4] | – | – | – | 1.43055 ± 0.0043 | 1.4284 ± 0.0043 | – | – | –

CN(C)C=O [dimethylformamide] + CCC(C)=O
x1 = 1
Conditions | mass density, 293.15 K [kg/m3] | mass density, 298.15 K [kg/m3] | mass density, 303.15 K [kg/m3] | refractive index, 293.15 K | refractive index, 298.15 K | refractive index, 303.15 K | speed of sound, 293.15 K [m/s] | speed of sound, 298.15 K [m/s] | speed of sound, 303.15 K [m/s]
[3] | 948.82 ± 2.3 | 944.06 ± 2.3 | 939.28 ± 2.3 | – | – | – | 1476.7 ± 1.5 | 1458.6 ± 1.4 | 1438.8 ± 1.4
[4] | – | – | – | 1.43055 ± 0.0043 | 1.4284 ± 0.0043 | 1.4261 ± 0.0043 | – | – | –

CN(C)C=O [dimethylformamide] + CCCC(C)=O
x1 = 1
Conditions | mass density, 293.15 K [kg/m3] | mass density, 298.15 K [kg/m3] | mass density, 303.15 K [kg/m3] | refractive index, 293.15 K | refractive index, 298.15 K | refractive index, 303.15 K | speed of sound, 293.15 K [m/s] | speed of sound, 298.15 K [m/s] | speed of sound, 303.15 K [m/s]
[3] | 948.82 ± 2.3 | 944.06 ± 2.3 | 939.28 ± 2.3 | – | – | – | 1476.7 ± 1.5 | 1458.6 ± 1.4 | 1438.8 ± 1.4
[4] | – | – | – | 1.43055 ± 0.0043 | 1.4284 ± 0.0043 | 1.4261 ± 0.0043 | – | – | –

CN(C)C=O [dimethylformamide] + CCCCCC(C)=O
298.15 K, x1 = 1
Conditions | mass density [kg/m3] | refractive index | speed of sound [m/s]
[3] | 944.06 ± 2.3 | – | 1458.6 ± 1.4
[4] | – | 1.4284 ± 0.0043 | –

CCCC(C)=O [pentan-2-one]
Conditions | mass density, 293.15 K [kg/m3] | mass density, 298.15 K [kg/m3] | mass density, 303.15 K [kg/m3] | refractive index, 293.15 K | refractive index, 298.15 K | refractive index, 303.15 K | speed of sound, 293.15 K [m/s] | speed of sound, 298.15 K [m/s] | speed of sound, 303.15 K [m/s]
[1] | 806.83 ± 2 | 801.99 ± 2 | 796.73 ± 2 | – | – | – | 1232.4 ± 2.3 | 1211.9 ± 2.3 | 1191.7 ± 2.3
[2] | – | – | – | 1.39026 ± 0.0042 | 1.38793 ± 0.0042 | 1.38523 ± 0.0042 | – | – | –
